Measured values: article PMC11504387, “Synthesis and Biological Activity Assessment of 2-Styrylbenzothiazoles as Potential Multifunctional Therapeutic Agents” (Antioxidants, 2024)

Legend:
PMNL = assay: ROS production in PMA-stimulated PMNL; type: cell-based, human; conditions: 10 µM, mean ± SD
Procedure: After 10 min at 37 °C, PMA (0.1 μM) was added. The fluorescence emission at 530 nm was measured after excitation at 485 nm in a thermally controlled (37 °C) NOVOstar microplate reader (BMG Lab technologies GmbH, Offenburg, Germany). […] ROS generation was induced by phorbol-12-myristate-13-acetate (PMA), a widely recognized agent for stimulating ROS production in neutrophils and enhancing endogenous superoxide formation. Diphenyleneiodonium (DPI, 10 µM), a NADPH oxidase inhibitor, served as a positive control. Through this assay, we could assess the potential interaction of our compounds with intracellular ROS production and their capacity to act as radical scavengers within a relevant cellular context. Furthermore, the outcomes provided additional insights into their inhibitory mechanism and helped to determine whether they act directly or non-specifically, as there is evidence that an impact on the ROS levels in PMNL could be translated to modulation of 5-LO activity in the cellular environment. […] With those data in hand, together with 5-LO inhibition assay outcomes, a direct inhibition of the enzyme stands as the best fitting option regarding the mechanism of action of compounds BZTst4 and BZTst6. […] This phenomenon was not further explored because such investigation was beyond the scope of this work.

[1] = UV spectrophotometric analysis of compounds in solution; type: physicochemical; conditions: at ʎmax, Lambert–Beer equation
Procedure: The synthesized compounds were solubilised in DMSO and diluted in MeOH, and the absorbance of the 10 µg/mL solution was measured between 290–400 nm with a UV-Vis spectrophotometer (SHIMADZU UV-2600 240 V, 1 cm quartz cell at 1 nm intervals). The absorbance at wavelength λ is related to the transmittance T(λ) via the Equation (1): A(λ) = −Log[T(λ)](1) where T(λ) is the fraction of incident irradiance transmitted by the sample. […]
The molar extinction coefficient was calculated with the absorbance recorded at the ʎmax applying the Lambert–Beer equation.

[2] = In vitro filtering parameters of O/W sunscreen formulation on PMMA plates; conditions: 3% in O/W sunscreen formulation
Procedure: Synthesized compounds were incorporated at 3% concentration in a suitable oil-in-water (O/W) emulsion for cosmetic use as sunscreen.
INCI: Aqua, Glycerin, Xanthan Gum, Phenoxyethanol (and) Ethylhexylglycerin, Tribehenin PEG-20 Esters, Cetearyl Alcohol, Dicaprylyl Carbonate, PPG 26 Buteth-26 (and) PEG 40 Hydrogenated Castor Oil, C12-15 Alkyl Benzoate, Sodium hydroxide (sol. 10%).
A protocol previously reported by us was adopted. Briefly, 32.5 mg of each compound formulation was spread on the rough surface of 5 × 5 cm^2 PMMA plates in the form of small drops of approximately equal mass, in triplicate. The plates were placed in the dark for 15–30 min to allow the formation of a sun-stabilised standard layer and then inserted into the instrument and measured at five different points on each plate (UV transmittance range 290–400 nm). The blank was a plate coated with 32.5 mg glycerine, chosen for its non-fluorescence and UV transparency. In addition, in vitro SPF, UVAPF and ʎc values were calculated according to Equations (2)–(4) above. To evaluate the booster effect of selected synthesized compounds, they were incorporated at 3% concentration in an oil-in-water (O/W) sunscreen formulation with fixed SPF and UVAPf values (30 and 10, respectively).
Aiming to create compounds with diverse biological activities, the synthesized 2-styrylbenzothiazoles were examined for potential applications in sunscreens. Each candidate was incorporated into a standard cosmetic formulation at a concentration of 3% and subjected to photoprotective efficacy testing using the Diffey–Robson method. The formulation comprised an oil-in-water (O/W) emulsion suitable for sunscreen use, with each benzothiazole derivative being heat-solubilized in the oil phase and then dispersed into the emulsion using a turbo emulsifier. The mixture was then cooled, and the emulsion was spread onto polymethylmethacrylate (PMMA) plates before recording the transmittance spectra. The SPF value, UVA protection factor value (UVAPF), the […], and the critical wavelength (λc) were determined from the transmittance spectra using SPF calculator software and are presented in Table 3. These parameters are essential for evaluating the efficacy of potential sunscreen products.

[3] = Photostability of O/W emulsions under solar simulator; type: physicochemical; conditions: O/W emulsion on PMMA
Procedure: Oil-in-water (O/W) emulsions containing individual filters were spread on PMMA sheet and irradiated with a solar simulator by applying different doses of UVA equivalent to an erythema effective radiant exposure of 100 J/m^2. Photostability was assessed by analysing the spectral transmittance, before and after irradiation, of the sunscreen thin film, measured before and after exposure from 290 to 400 nm. The residual percentages of SPF in vitro (%SPFeff.) and UVAPF (%UVAPFeff.) were calculated according to Equations (6) and (7), respectively. When the %SPFeff. and %UVAPFeff. are greater than or equal to 80, according to current regulations, a filter can be considered photostable [37].
To evaluate the effectiveness and safety profile of a sunscreen formulation, it is necessary to provide data on its photostability. Photodegradation data can be obtained by recording the pre- and post-irradiation transmittance spectra of PMMA plates with finger-coat formulations exposed to a dose of UVA capable of causing erythema. This method, established by Garoli et al., is used to determine photostability. The sun protection layer’s transmission in the range of 290–400 nm is recorded before and after exposure to sunlight, following the protocol.
The residual percentages of SPF in vitro (%SPFeff.) and UVAPf (%UVAPfeff.) were calculated using Equations (6) and (7) and are listed in Table 4. A filter can be classified as photostable if the %SPFeff. is greater than or equal to 80, according to regulatory standards. %SPFeff. = in vitro SPFafter/in vitro SPFbefore × 100(6) %UVAPfeff. = UVAPfafter/UVAPfbefore × 100(7) where SPFafter and SPFbefore are the SPF values calculated from the software after and before solar irradiation, and UVAPfafter and UVAPfbefore are the UVAPf values calculated from the software after and before solar irradiation.

Human recombinant 5-LO = biological target: T1, Human recombinant 5-LO (Homo sapiens, UniProt P09917); assay: 5-Lipoxygenase inhibition in a cell-free assay; type: biochemical; conditions: 3 µM; % relative to vehicle (DMSO); read-out: 5-LO Residual Activity (Cell-Free)
T1 construct: made in house
T1 sequence (P09917 1-674): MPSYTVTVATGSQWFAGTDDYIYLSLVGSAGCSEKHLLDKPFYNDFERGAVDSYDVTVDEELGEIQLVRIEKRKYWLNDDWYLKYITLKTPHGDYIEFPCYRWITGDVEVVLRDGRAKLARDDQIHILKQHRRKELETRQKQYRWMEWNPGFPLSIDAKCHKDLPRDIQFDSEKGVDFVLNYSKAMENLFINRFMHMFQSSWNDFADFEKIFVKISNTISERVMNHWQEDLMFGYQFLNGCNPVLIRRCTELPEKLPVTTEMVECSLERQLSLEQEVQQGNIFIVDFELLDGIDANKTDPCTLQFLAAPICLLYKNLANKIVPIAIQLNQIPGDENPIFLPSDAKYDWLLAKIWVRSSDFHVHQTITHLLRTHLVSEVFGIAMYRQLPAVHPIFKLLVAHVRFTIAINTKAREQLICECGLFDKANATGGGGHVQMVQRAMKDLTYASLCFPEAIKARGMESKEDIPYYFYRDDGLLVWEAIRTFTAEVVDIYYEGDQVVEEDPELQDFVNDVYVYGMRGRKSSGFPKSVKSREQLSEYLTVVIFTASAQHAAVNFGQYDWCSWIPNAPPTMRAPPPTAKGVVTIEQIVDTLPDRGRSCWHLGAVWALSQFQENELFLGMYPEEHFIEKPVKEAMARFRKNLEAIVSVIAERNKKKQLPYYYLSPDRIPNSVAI
Procedure: Human recombinant 5-LO was expressed and isolated as described before, and immediately used for activity assays after isolation. The 5-LO (0.5 µg, in 1 mL PBS pH 7.4 containing 1 mM EDTA) was pre-incubated with the test compounds for 10 min at 4 °C and pre-warmed for 30 s at 37 °C. 5-LO product formation was initiated by sequential addition of 1 mM CaCl2 and 20 μM arachidonic acid. After 10 min at 37 °C, the reaction was terminated by addition of 1 mL ice-cold methanol containing 200 ng PGB1 as internal standard. Formed 5-LO products (trans-LTB4, epi-trans-LTB4, and 5-HETE) were extracted using Sep-Pak C18 35 cc Vac Cartridges and analysed by UPLC-MS/MS as previously described.

[4] = biological target: T2, 5-LO in A23187-stimulated human PMNL (Homo sapiens, UniProt P09917); assay: 5-Lipoxygenase inhibition in a cell-based assay (PMNL); conditions: PMNL; 3 µM; % relative to vehicle (DMSO); read-out: 5-LO Residual Activity (PMNL)
T2 construct: Freshly isolated PMNL (1 × 10^6 cells/mL) in PBS buffer pH 7.4; endogenous in cells; host or cells: primary human PMNL (neutrophils) isolated from blood
T2 sequence (P09917 1-674): T1 sequence (P09917 1-674)
Procedure: Following blood density centrifugation and cell population separation, PMNL was recovered from the pellet after hypotonic lysis of erythrocytes. Freshly isolated PMNL (1 × 10^6 cells/mL) in PBS buffer pH 7.4 with glucose (1 mg/mL) and CaCl2 (1 mM) was pre-incubated with the test compounds for 10 min at 37 °C. Then, 5-lipoxygenase (5-LO) product formation was started by addition of 2.5 μM Ca^2+-ionophore A23187 plus 20 μM arachidonic acid. The reaction was stopped after 10 min at 37 °C with 1 mL of ice-cold methanol containing 200 ng PGB1 as internal standard. Major 5-LO products (LTB4, trans-LTB4, epi-trans-LTB4, and 5-HETE) were extracted by SPE using Sep-Pak C18 35 cc Vac Cartridges (Waters, Milford, MA, USA) and analysed by UPLC-MS/MS as described by Pein et al..

[5] = system: human melanoma Colo38 cells; assay: Cell growth inhibition assay, Colo38; type: cell-based; conditions: 24 h incubation; mean ± SD
Procedure: Cell growth inhibition analyses were performed on human melanoma Colo38 cells and skin HaCat keratinocytes. Human melanoma Colo38 cells were kindly given by Dr. Patrizio Giacomini (Laboratory of Immunology, Regina Elena Institute, Rome, Italy). HaCat cells were obtained from Istituto Zooprofilattico Sperimentale della Lombardia e dell’Emilia-Romagna, Brescia, Italy. Cells were seeded at 40,000 cells/mL and 25,000 cells/mL, respectively. Colo38 cells were maintained in RPMI 1640, supplemented with 10% foetal bovine serum (FBS), penicillin (100 Units/mL), and streptomycin (100 µg/mL). HaCat cells were maintained in DMEM, supplemented with 10% fatal bovine serum (FBS), penicillin (100 Units/mL), streptomycin (100 µg/mL) and glutamine (2 mM); the incubation was performed at 37 °C in a 5% CO2 atmosphere. Compounds were dissolved in DMSO to obtain 50 mM stock solutions and diluted before cell treatment in MeOH. The tested compounds were added at serial dilutions to the cell cultures (from 0.1 to 100 µM) and incubated for 24 h further. Cells were then harvested, suspended in physiological solution, and counted with a Z2 Coulter Counter (Coulter Electronics, Hialeah, FL, USA). The number of cells/mL and the IC50 values were determined when untreated cells were in the log phase of cell growth. Samples of vehicles and untreated cells were included in each plate. Cisplatin was used as positive control for the HaCat cells, while N1-(4-arylidene)-1H-(2-OH-4-N(Et)2-phenyl)-[d]imidazole-2-carbohydrazide was used as positive control for the Colo38 cell line.

c1ccc2c(c1)[I+]c1ccccc1-2 [DPI, Diphenyleneiodonium, reference compound]
ROS Production (% of Control) (PMNL): 16.44 ± 2.14 % of control

O=S(=O)(O)c1ccc2[nH]c(-c3ccccc3)nc2c1 [PBSA, 2-Phenyl-1H-Benzimidazole-5-Sulphonic Acid, reference compound]
Ɛ (molar extinction coefficient) [1]: 23,881.86 dm^3 mol^−1 cm^−1 | SPF [2]: 1.91 | UVA/UVB [2]: 0.67 | UVAPF [2]: 1.13 | ʎc (critical wavelength) [2]: 357 nm | %UVAPfeff. ([3]; residual UVAPF after solar irradiation): 100.00% | %SPFeff. ([3]; residual in vitro SPF after solar irradiation): 103.66%

CC(c1cc2ccccc2s1)N(O)C(N)=O (centres unmarked) [Zileuton, zileuton, reference compound]
remaining activity at 3 µM (Human recombinant 5-LO): 28.6 ± 7.38% | remaining activity at 3 µM [4]: 31.3 ± 12.7%

N^1-(4-arylidene)-1H-(2-OH-4-N(Et)2-phenyl)-[d]imidazole-2-carbohydrazide [Cmp 13, reference compound]
IC50 [5]: 700 ± 60 nM
